This is an account of results in patent US20240132477A1, “Benzimidazole Derivatives and Their Use As Inhibitors of ITK For The Treatment of Skin Disease” (PFIZER INC., priority 2020, published 2024).

Test [1] has as its target Tropomyosin Receptor Kinase A (TRKA, NTRK1 enzyme) (Homo sapiens (Human), UniProt P04629). As to the kind of experiment: TRKA (NTRK1) ThermoFisher Z'-LYTE assay. The class given is biochemical. The conditions noted are these: test compound 1 uM, ATP 1 mM; arithmetic mean of count n; read-out: TRKA % inhibition. The procedure: Tropomyosin Receptor Kinase a (TRKA) Activity, % Inhibition
TRKA, also known as neurotrophic tyrosine kinase receptor type 1 (NTKR1) activity was determined by measuring the effect of a test compound on the activity against the NTRK1 enzyme using the ThermoFisher Z′-LYTE Assay fluorescence-based coupled enzyme format (www.thermofisher.com/selectscreen). Test compounds were screened at a fixed concentration of 1 uM and the % inhibition was determined compared to controls at a fixed ATP concentration of 1 mM. The resulting effect value for the tested compound was compared to the assay controls to determine the % inhibition (%). % Inhibition (%) values for compounds of the invention are presented in the Table that follows.

Test [2] relates to IL-2 in supernatants from activated CD4+ human T-cells. As to the kind of experiment: IL-2 inhibition in supernatants from activated CD4+ human T-cells (cisbio HTRF). It is filed as cell-based. Particulars: T-cell; geometric mean of count n; activated CD4+ human T-cells, 20 to 24 hrs; read-out: IL-2 IC50. The procedure:
IL-2-Inhibition Activity, IC50 (uM)
IL-2 inhibition activity in supernatants from activated CD4+ human T-cells was determined by measuring the effect of a test compound on the activity using the cisbio HTRF™ technology.
Human CD4+ T cells were activated with CD3/CD28 for 3 days and expanded for an additional 4-6 days (7 to 9 days total). On day 0, frozen CD4+ T cells were thawed, treated with CD3/CD28 Dynabeads, and incubated at 37° C./5% CO2. On day 3, the beads were removed, and the cells were diluted to 5×10^5 cells/cm^2, placed in G-Rex10 flask, and incubated at 37° C./5% CO2. On day 7 to day 9 the cells were removed from the G-Rex flasks, counted and diluted back to 1×10^6 cells/ml in standard tissue culture flask.
The expanded CD4+ T-cells were centrifuged at 300×g for 10 minutes and resuspended to 0.5 million cells per ml (30,000 cells/well). 60 μl of CD4+ T cells were added per well to a 384 well plate containing 0.1 μL of varying concentrations of test compound in DMSO. The plates were incubated for 15 min at 37° C./5% CO2. 20 μl of diluted ImmunoCult™ (STEMCELL Technologies, 1:12.5 in T cell assay media) were added to all wells of the plate (1:50 final assay concentration). The plates were incubated for an additional 20 to 24 hrs at 37° C./5% CO2. The plates were centrifuged at 300×g for 10 minutes. 16 μL of supernatant was removed and combined with 4 μl of IL-2 HTRF Abs. (cisbio kit). Plates were incubated for 3 hours at RT and read with an EnVision plate reader at 665 nm and 615 nm wavelengths. The concentrations and resulting effect values for the tested compound were plotted and the concentration of compound required for 50% effect (IC50) was determined with the four-parameter logistic dose response equation.
A general note: Time-resolved FRET reads energy transfer from a long-lived donor to a nearby acceptor.

Test [3] addresses IL-2-Inducible T-Cell Kinase (ITK) (Homo sapiens (Human), UniProt Q08881). Description: ITK enzyme assay. It is filed as biochemical. The conditions noted are these: geometric mean of count n; ITK FL enzyme, BTK peptide substrate. The method, then: IL-2-Inducible T-Cell Kinase (ITK) Activity, IC50 (uM)
ITK activity was determined by measuring the effect of a test compound in an ITK enzyme assay.
1.0 M HEPES Buffer pH 7.5 solution was prepared as follows: 238.3 g HEPES free acid (Sigma) and 800 mL of water were combined, and the mixture was stirred until complete dissolution. The pH was adjusted to 7.5 via titration with 5N NaOH and the volume adjusted to 1000 mL. The solution was filtered and sterilized.
ITK assay buffer was prepared as follows: 50 mL of HPLC-grade water was treated with 2 mL of 1.0 M HEPES Buffer, 500 μL of 2% Gelatin (Sigma), 1.0 mL of aqueous MgCl2 solution (1.0 M), and 1.0 mL of aqueous glutathione solution (0.5 M), and the solution was mixed. The solution was brought to 99 mL in a graduated cylinder by addition of water and sterilized through a 0.2 μm filter. 0.1 mL of Brij-35™ Surfact-AmpS™ Detergent Solution (10% w/v aqueous solution, ThermoFisher) and 1.0 mL of ATP (Teknova, 100 mM) were added and the solution was mixed.
Preparation of 1.33×ITK enzyme solution was as follows: 49.99 mL of ITK assay buffer was treated with 4.1 μL of ITK enzyme (ITK FL (N-Flag and C-His tagged, ˜72 kDa) Lake Pharma, 0.25 mg/ml in a buffer containing 25 mM Tris pH 7.8, 150 mM NaCl, 10% glycerol and 2 mM TCEP) and the mixture was gently agitated. The resulting solution was stored on ice. 30 Minutes prior to use, the enzyme solution was removed from ice and equilibrated to RT by incubation in a RT water bath.
Preparation of 4×ITK substrate solution was as follows: 50 mL of ITK assay buffer was treated with 100 μL of BTK peptide (China Peptide Company, 2 mM stock solution in DMSO). The tube was capped, mixed by gently inverting the tube, and then stored on ice. 30 Minutes prior to use, the substrate solution was removed from ice and equilibrated to RT by incubation in a RT water bath.
At the time of assay, 7.5 μL of the 1.33×ITK enzyme solution was added to plate wells containing 0.1 μL of varying concentrations of test compound in DMSO. The plate was incubated 30 min at RT. The plate wells were each treated with 2.5 uL of the 4×ITK substrate solution and the plate was sealed (TopSeal™, Perkin Elmer). The plate was spun at 1000 rpm for 30 sec and then incubated for 60 min at RT. The seal was removed, and each well was treated with 10 μL of Stop/Detect Buffer (20 mM HEPES pH 7.5, 0.01% gelatin, 1 nM LANCE PT66 (Perkin Elmer), 16.5 μg/ml Surelight APC (Perkin Elmer), 10 mM EDTA, 250 mM NaCl). The plate was again covered and was spun at 1000 rpm for 30 seconds. The plate was allowed to incubate overnight at RT and in a closed carrier to reduce dehydration. The seal was removed, and the fluorescence was read with a plate reader with […]. The concentrations and resulting effect values for the tested compound were plotted and the concentration of compound required for 50% effect (IC50) was determined with the four-parameter logistic dose response equation.

Sequence of IL-2-Inducible T-Cell Kinase (ITK) (Q08881 whole entry): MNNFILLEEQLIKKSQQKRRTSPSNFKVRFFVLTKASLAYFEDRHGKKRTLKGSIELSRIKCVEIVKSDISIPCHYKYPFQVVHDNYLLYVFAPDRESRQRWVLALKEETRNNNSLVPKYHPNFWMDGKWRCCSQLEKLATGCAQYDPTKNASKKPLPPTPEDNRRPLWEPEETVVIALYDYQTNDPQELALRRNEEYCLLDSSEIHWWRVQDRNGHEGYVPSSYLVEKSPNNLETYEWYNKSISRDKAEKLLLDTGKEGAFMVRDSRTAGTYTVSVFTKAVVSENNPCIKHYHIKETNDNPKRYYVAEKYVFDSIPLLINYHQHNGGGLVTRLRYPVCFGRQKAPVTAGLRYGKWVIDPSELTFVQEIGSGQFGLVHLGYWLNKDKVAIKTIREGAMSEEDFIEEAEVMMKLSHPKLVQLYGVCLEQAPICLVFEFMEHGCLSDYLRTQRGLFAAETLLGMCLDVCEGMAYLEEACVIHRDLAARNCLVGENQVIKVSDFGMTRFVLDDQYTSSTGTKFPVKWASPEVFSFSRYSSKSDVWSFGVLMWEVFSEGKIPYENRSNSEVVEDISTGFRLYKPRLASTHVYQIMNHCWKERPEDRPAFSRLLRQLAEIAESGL
Sequence of Tropomyosin Receptor Kinase A (TRKA, NTRK1 enzyme) (P04629 33-796): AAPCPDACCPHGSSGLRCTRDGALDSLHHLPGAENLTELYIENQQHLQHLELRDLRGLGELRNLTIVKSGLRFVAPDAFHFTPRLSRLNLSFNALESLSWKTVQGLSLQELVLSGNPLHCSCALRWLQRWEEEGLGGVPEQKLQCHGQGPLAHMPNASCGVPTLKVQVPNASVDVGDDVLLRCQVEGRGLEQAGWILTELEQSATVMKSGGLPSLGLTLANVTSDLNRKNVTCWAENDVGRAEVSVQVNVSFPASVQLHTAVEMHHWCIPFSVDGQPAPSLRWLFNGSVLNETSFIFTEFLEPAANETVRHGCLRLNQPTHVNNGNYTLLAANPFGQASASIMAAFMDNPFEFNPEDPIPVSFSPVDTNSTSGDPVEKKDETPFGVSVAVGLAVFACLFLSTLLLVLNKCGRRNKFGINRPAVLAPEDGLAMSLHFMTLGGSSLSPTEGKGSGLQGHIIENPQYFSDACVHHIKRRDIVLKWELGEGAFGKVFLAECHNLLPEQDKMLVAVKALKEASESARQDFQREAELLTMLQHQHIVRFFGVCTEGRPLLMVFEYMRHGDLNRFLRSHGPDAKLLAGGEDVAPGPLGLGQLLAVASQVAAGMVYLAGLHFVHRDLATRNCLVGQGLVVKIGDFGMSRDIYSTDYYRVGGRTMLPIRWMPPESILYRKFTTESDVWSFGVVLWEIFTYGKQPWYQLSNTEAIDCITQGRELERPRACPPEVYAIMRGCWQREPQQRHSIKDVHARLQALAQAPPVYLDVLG

On to `CC(=O)N(C)c1ccc2[nH]c(-c3n[nH]c4c3C[C@@H]3C(F)(F)[C@]3(C)C4)nc2c1` [Example 2, N-(2-((4aS,5aR)-5,5-difluoro-5a-methyl-1,4,4a,5,5a,6-hexahydrocyclopropa[f]indazol-3-yl)-1H-benzo[d]imidazol-5-yl)-N-methylacetamide], for which the inhibition at 1 µM in test [1] stood at 95%. In addition, the IC50 in test [2] came out at 15 nM; in test [3] it was 4 nM.

As to `Cc1cc2[nH]c(-c3n[nH]c4c3C[C@@H]3C[C@]3(C)C4)nc2cc1N(C)C(=O)C(C)C` [Example 22, N-Methyl-N-(5-methyl-2-((4aS,5aR)-5a-methyl-1,4,4a,5,5a,6-hexahydrocyclopropa[f]indazol-3-yl)-1H-benzo[d]imidazol-6-yl)isobutyramide], the IC50 in test [2] turned out to be 43 nM; in test [3] it was 5 nM.

On to `Cc1cc2[nH]c(-c3n[nH]c4c3C[C@@H]3C[C@]3(C)C4)nc2cc1N(C)C(=O)C1(C)CC1` [Example 24, N,1-Dimethyl-N-(5-methyl-2-((4aS,5aR)-5a-methyl-1,4,4a,5,5a,6-hexahydrocyclopropa[f]indazol-3-yl)-1H-benzo[d]imidazol-6-yl)cyclopropane-1-carboxamide], for which the IC50 amounted to 259 nM in test [2] and 37 nM in test [3].

On to `Cc1cc2[nH]c(-c3n[nH]c4c3C[C@@H]3C[C@]3(C)C4)nc2cc1N(C)C(=O)[C@H](C)N1CCCC1=O` [Example 25, (S)-N-Methyl-N-(6-methyl-2-((4aS,5aR)-5a-methyl-1,4,4a,5,5a,6-hexahydrocyclopropa[f]indazol-3-yl)-1H-benzo[d]imidazol-5-yl)-2-(2-oxopyrrolidin-1-yl)propenamide], for which the IC50 in test [2] is 572 nM; in test [3], 72 nM.

In the case of `CCCC(=O)N(C)c1cc2nc(-c3n[nH]c4c3C[C@@H]3C[C@]3(C)C4)[nH]c2cc1C` [Example 26, N-Methyl-N-(6-methyl-2-((4aS,5aR)-5a-methyl-1,4,4a,5,5a,6-hexahydrocyclopropa[f]indazol-3-yl)-1H-benzo[d]imidazol-5-yl)butyramide], the half-maximal inhibitory concentration (IC50) in test [2] was found to be 47 nM; in test [3], 6 nM.

`CC[C@@H](C(=O)N(C)c1cc2nc(-c3n[nH]c4c3C[C@@H]3C[C@]3(C)C4)[nH]c2cc1C)N1CCCC1=O` [Example 27, (S)-N-Methyl-N-(6-methyl-2-((4aS,5aR)-5a-methyl-1,4,4a,5,5a,6-hexahydrocyclopropa[f]indazol-3-yl)-1H-benzo[d]imidazol-5-yl)-2-(2-oxopyrrolidin-1-yl)butanamide]: the IC50 in test [2] was found to be 489 nM; in test [3], 77 nM.

For `Cc1cc2[nH]c(-c3n[nH]c4c3C[C@@H]3C[C@]3(C)C4)nc2cc1N(C)C(=O)C(C)(C)F` [Example 28, 2-Fluoro-N,2-dimethyl-N-(6-methyl-2-((4aS,5aR)-5a-methyl-1,4,4a,5,5a,6-hexahydrocyclopropa[f]indazol-3-yl)-1H-benzo[d]imidazol-5-yl)propenamide], the IC50 came to 57 nM in test [2] and 7 nM in test [3].

Regarding `Cc1cc2[nH]c(-c3n[nH]c4c3C[C@@H]3C[C@]3(C)C4)nc2cc1N(C)C(=O)C1(F)CC1` [Example 32, 1-Fluoro-N-methyl-N-(6-methyl-2-((4aS,5aR)-5a-methyl-1,4,4a,5,5a,6-hexahydrocyclopropa[f]indazol-3-yl)-1H-benzo[d]imidazol-5-yl)cyclopropane-1-carboxamide], the half-inhibitory concentration (IC50) is 118 nM in test [2] and 8 nM in test [3].

Turning to `CCC(=O)N(C)c1cc2nc(-c3n[nH]c4c3C[C@@H]3C[C@]3(C)C4)[nH]c2cc1C` [Example 33, N-Methyl-N-(6-methyl-2-((4aS,5aR)-5a-methyl-1,4,4a,5,5a,6-hexahydrocyclopropa[f]indazol-3-yl)-1H-benzo[d]imidazol-5-yl)propionamide], the IC50 in test [2] turned out to be 53 nM; in test [3], 5 nM.

For the compound `Cc1cc2[nH]c(-c3n[nH]c4c3C[C@@H]3C[C@]3(C)C4)nc2cc1N(C)C(=O)CN1CCCCCC1=O` [Example 34, N-Methyl-N-(6-methyl-2-((4aS,5aR)-5a-methyl-1,4,4a,5,5a,6-hexahydrocyclopropa[f]indazol-3-yl)-1H-benzo[d]imidazol-5-yl)-2-(2-oxoazepan-1-yl)acetamide], the IC50 in test [2] was determined as 43 nM; in test [3], 4 nM.

In the case of `Cc1cc2[nH]c(-c3n[nH]c4c3C[C@@H]3C[C@]3(C)C4)nc2cc1N(C)C(=O)C1CCC1` [Example 36, N-Methyl-N-(6-methyl-2-((4aS,5aR)-5a-methyl-1,4,4a,5,5a,6-hexahydrocyclopropa[f]indazol-3-yl)-1H-benzo[d]imidazol-5-yl)cyclobutanecarboxamide], the IC50 came out at 57 nM in test [2] and 5 nM in test [3].

With `CCC(C(=O)N(C)c1cc2nc(-c3n[nH]c4c3C[C@@H]3C[C@]3(C)C4)[nH]c2cc1C)N1CCCC1=O` (stereo partly drawn) [Example 37, N-Methyl-N-(6-methyl-2-((4aS,5aR)-5a-methyl-1,4,4a,5,5a,6-hexahydrocyclopropa[f]indazol-3-yl)-1H-benzo[d]imidazol-5-yl)-2-(2-oxopyrrolidin-1-yl)butanamide], the values for the IC50 in test [2] and in test [3] were 506 nM and 61 nM, respectively.

On to `COC(C)(C)C(=O)N(C)c1cc2nc(-c3n[nH]c4c3C[C@@H]3C[C@]3(C)C4)[nH]c2cc1C` [Example 39, 2-Methoxy-N,2-dimethyl-N-(6-methyl-2-((4aS,5aR)-5a-methyl-1,4,4a,5,5a,6-hexahydrocyclopropa[f]indazol-3-yl)-1H-benzo[d]imidazol-5-yl)propenamide], for which the half-inhibitory concentration (IC50) in test [2] turned out to be 268 nM; in test [3] it was 74 nM.

As for `Cc1cc2[nH]c(-c3n[nH]c4c3C[C@@H]3C[C@]3(C)C4)nc2cc1N(C)C(=O)[C@H]1CCOC1` [Example 40, (S)-N-Methyl-N-(6-methyl-2-((4aS,5aR)-5a-methyl-1,4,4a,5,5a,6-hexahydrocyclopropa[f]indazol-3-yl)-1H-benzo[d]imidazol-5-yl)tetrahydrofuran-3-carboxamide], the IC50 in test [2] came to 114 nM; in test [3], 13 nM.

Broadly, the inhibition is the share of the control response that was lost under treatment. In general, IC50 refers to the concentration at which inhibition is half-maximal.
